In patent publication US20130253179A1, “Functionalization Processes and Reactants Used in Such Processes Using an Isatoic Anhydride or a Derivative Thereof, Biological Molecules Thus Treated and Kits” (priority 2010, published 2013):

Key:
[1] = test system: ORN with 27 bases in mixture with an ODN with 27 bases; assay: Selective functionalisation, capture, cleaving and elution of an ORN from an ORN/ODN mixture (HPLC 260 nm); conditions: injection 2, after two functionalisation/precipitation steps, 65° C. 1 h
Experimental: We have a 27-mer ODN (Eurogentec ref. 21438-DNA batch #2177673, Sequence: 5′-AAC-CGC-AGT-GAC-ACC-CTC-ATC-ATT-ACA-3′) in 650 μM solution in water, and a 27-mer ORN (Eurogentec ref. 21437-RNA batch #2177672, Sequence: 5′-AAC-CGC-AGU-GAC-ACC-CUC-AUC-AUU-ACA-3′) in 952 μM solution in water. 15.4 μL of ODN and 17.5 μL of ORN are mixed and topped up with 67.1 μL of ultrapure water.
80 μL of the mixture (8 nmoles) are evaporated until dry and taken up in: 10 μL of water, 5 μL of isatoic anhydride Biot PEG4(SS)IA Me (24); […]), in 480 mM DMF solution, and 5 μL of Triethyl ammonium acetate buffer in 1 M solution in water. The medium is placed in the oven at 65° C. for one hour.
The medium is then subjected to a triple precipitation with lithium perchlorate LiClO4 and with acetone, in order to free it from the residual BiotPEG4 (SS) IA Me: 18 μL of LiClO4 in 3M solution in water and 262 μL of water are added to the medium. After vortex stirring, 900 μL of acetone are added, then the medium is agitated once again and centrifuged (5 minutes at 13,000 rpm at ambient temperature). The supernatant is then removed carefully and the same method is repeated twice more with 18 μL of LiClO4 and 282 μL of water. Finally, the medium is washed with 900 μL of acetone before stirring and centrifuging. The greater part of the supernatant is removed carefully before drying in the rotary evaporator. […]

[2] = test system: in vitro RNA transcripts (IVT); assay: Functionalisation of in vitro RNA transcripts, Cy3 and RNA assay, DoL (Degree of Labelling); assay type: biochemical, human
Experimental: The in vitro transcripts are generated in the same way as described in example 8. In this example, we have used four concentrations of functionalisation molecule Cy3 IA Me (13) in order to determine the most appropriate concentration for detection of the most sensitive functionalised IVTs.
6 μg of in vitro transcripts are taken up in a total volume of 20 μL of a 10 mM solution of Zn(OAc)2 pH 6.5. The solution is incubated for 15 min at 70° C. in order to partially fragment the RNA until a majority of fragments are obtained which are of a size between 25 and 200 bases. After this incubation, the solution is immediately put into ice.
11 μL of the transcript solution is mixed with 4 μL of a 500 mM solution of NaHCO3 pH 8-8.5, and with 5 μL of a 120, 240, 360 or 480 mM solution of Cy3 IA Me (13) in DMSO, to obtain 30, 60, 90 or 120 mM solutions of functionalisation reagent, respectively. These solutions are incubated at 65° C. for one hour.
The excess of functionalisation reagent as well as that of the different salts are eliminated by isopropanol precipitation then by acetone precipitation. To do this, 6 μL of 3M sodium acetate (i.e. 30% by volume) and 14 μL of isopropanol (i.e. 70% by volume) are added to the functionalisation solution. Vortex stirring is performed and centrifuging is performed for 30 mins at 14,000 rpm (20,800 g) at 4° C. The supernatant is eliminated and then the pellet is rinsed with 50 μL of 70% ethanol. Centrifuging is carried out again for 15 mins at 14,000 rpm (20,800 g) at 4° C., and the supernatant is eliminated.
280 μL of water, 18 μL of 3M LiClO4 and 900 μL of acetone are added to the pellet. Vortex stirring is performed, centrifuging is performed and the supernatant is eliminated. Next, 280 μL of water, 18 μL of 3M LiClO4 and 900 μL of acetone are added to the pellet. Vortex stirring is performed, centrifuging is performed and the supernatant is eliminated. The pellet is rinsed with 50 μL of 70% ethanol and then centrifuging is carried out for 15 mins at 14,000 rpm (20,800 g) at 4° C. The supernatant is eliminated, and the pellet is dried under vacuum with the rotary evaporator before the pellet is taken up in 20 μL of water (i.e. [in vitro transcripts]theoretical=[…]).
In order to determine the quantity of functionalised in vitro transcripts recovered after these different treatments, 1.2 μl of each end solution are assayed by UV spectrophotometry at 260 nm (Nanodrop 100, Thermo Scientific Waltham, USA). An assay is also carried out at 550 nm in order to learn the Cy3 functionalisation rate of the in vitro transcripts (% of Cy3 molecules per 100 nucleosides). This value is also known under the name DoL (Degree of Labelling) and is calculated with the following equation: DoL (in %)=100×(340×[Cy3])/(1000×[RNA]). […]

| Structure (SMILES) | initial ORN functionalised [1] [%] | DoL ([2]; 30 mM compound in the solution) [%] | DoL ([2]; 60 mM compound in the solution) [%] | DoL ([2]; 90 mM compound in the solution) [%] | DoL ([2]; 120 mM compound in the solution) [%] |
| --- | --- | --- | --- | --- | --- |
| Cn1c(=O)oc(=O)c2cc(NC(=O)CCSSCCNC(=O)CCOCCOCCOCCOCCNC(=O)CCCCC3SCC4NC(=O)NC43)ccc21 (centres unmarked) [5Biot PEG4 SS IA Me 24] | 95 | – | – | – | – |
| CCN1/C(=C\C=C\C2=[N+](CCCCCC(=O)Nc3ccc4c(c3)c(=O)oc(=O)n4C)c3ccc(S(=O)(=O)[O-])cc3C2(C)C)C(C)(C)c2cc(S(=O)(=O)[O-])ccc21.[K+] [Cy3 IA Me 13, 1-methyl 5-Cy3-isatoic anhydride] | – | 0.8 | 1.7 | 2 | 2.7 |
